Source: US20260250320A1, “LIPIDATED PEPTIDE INHIBITORS OF INTERLEUKIN-23 RECEPTOR” (Janssen Pharmaceutica NV, priority 2023, published 2026)
pIC50: −log10 of the molar value. *1 amine or outer side, *2 acyl side, *3 side chain or, on linkers, in order; H or OH if unused. Where a SMILES comes first, the peptide text is derived from it. Bridges are numbered along the chain shown (N, C = ends). Side-chain parts run from the residue outwards. [ ]: non-standard residue; d: D form. The star is where a group is joined. ξ: configuration not given here. X30 = C[N+](C)(CCCC(=O)CCOCCOCCOCCOCCOCCOCCNC(=O)CC[C@H](NC(=O)CCCCCCCCCCCCCCCCC(=O)O)C(=O)O)CC(=O)*; X15 = C[N+](C)(C)CCOCCOCCC(=O)C[C@H](CCCCN[*:1])C(=O)[*:2]; Me3N+(CH2)2O(CH2)2O(CH2)2CO = C[N+](C)(C)CCOCCOCCC(=O)*; PEG12 = NCCOCCOCCOCCOCCOCCOCCOCCOCCOCCOCCOCCOCCC(=O)O; Trp(7-Me) = Cc1cccc2c(C[C@H](N)C(=O)O)c[nH]c12; C18 diacid = O=C(O)CCCCCCCCCCCCCCCCC(=O)*; γGlu = O=C(O)[C@H](CCC(=O)[*:2])N[*:1]; 2Nal = N[C@@H](Cc1ccc2ccccc2c1)C(=O)O; AEF = NCCOc1ccc(C[C@H](N)C(=O)O)cc1; 2Pal = N[C@@H](Cc1ccccn1)C(=O)O; 3Pal = N[C@@H](Cc1cccnc1)C(=O)O; Lys(Me) = CNCCCC[C@H](N)C(=O)O; Pen = CC(C)(S)[C@H](N)C(=O)O; ξ3Pal = NC(Cc1cccnc1)C(=O)O; Ac6c = NC1(C(=O)O)CCCCC1; Thp = NC1(C(=O)O)CCOCC1; Abu = CC[C@H](N)C(=O)O; X1 = C[N+](C)(C)CCCCC*; X31 = C=C(CN(C)*)N(C)C; AEEA = NCCOCCOCC(=O)O; Sar = CNCC(=O)O

Experiments:
IL-23R = target: T1, IL-23R (Homo sapiens, UniProt Q5VWK5); experiment: IL23R Reporter Assay; type: cell-based; details: HEK293 cells containing IL-23R, IL-12Rβ1 and STAT-inducible firefly luciferase reporter; 10 ng/mL IL-23 (EC90); 5 h
T1 construct: HEK293 cells containing IL-23R, IL-12Rβ1 and a firefly luciferase reporter gene driven by a STAT-inducible promoter (Promega); host or cells: HEK293
T1 sequence (Q5VWK5 24-629): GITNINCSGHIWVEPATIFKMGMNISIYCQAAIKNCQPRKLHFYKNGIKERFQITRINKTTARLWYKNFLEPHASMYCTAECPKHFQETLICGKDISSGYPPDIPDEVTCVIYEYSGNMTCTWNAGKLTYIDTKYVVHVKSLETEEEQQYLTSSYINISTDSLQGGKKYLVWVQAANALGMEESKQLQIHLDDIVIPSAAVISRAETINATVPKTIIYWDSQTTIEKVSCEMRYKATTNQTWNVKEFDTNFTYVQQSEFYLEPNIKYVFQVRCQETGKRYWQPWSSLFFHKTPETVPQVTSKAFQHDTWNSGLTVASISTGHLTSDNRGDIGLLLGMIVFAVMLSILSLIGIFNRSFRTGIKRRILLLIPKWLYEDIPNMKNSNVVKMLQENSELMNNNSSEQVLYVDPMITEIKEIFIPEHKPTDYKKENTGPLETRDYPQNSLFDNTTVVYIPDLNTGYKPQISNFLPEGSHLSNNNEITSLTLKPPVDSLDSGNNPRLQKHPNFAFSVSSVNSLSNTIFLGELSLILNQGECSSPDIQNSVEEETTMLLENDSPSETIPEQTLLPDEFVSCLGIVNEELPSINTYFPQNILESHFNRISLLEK
Method in brief: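 IC50 values were fitted with a 4-parameter Hill equation to luciferase signal, scaled between IL-23-only wells (0% inhibition) and 30 μM reference inhibitor (100%). The readout was a STAT-inducible reporter in IL-23R/IL-12Rβ1 HEK293 cells, stimulated with added 10 ng/mL IL-23 (EC90) for 5 h at 37° C and developed with BioGlo.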

[1] = tested on: IL-23-stimulated phosphorylated STAT3 in peripheral blood mononuclear cells (PBMCs); experiment: PBMC pSTAT3 Assay; type: cell-based; details: PBMCs from healthy donors; 30 min preincubation with peptide; IL-23 5 ng/mL for 30 min; phospho-STAT3 by MSD
Method in brief: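 Phospho-STAT3 quantified by Meso Scale assay in lysates of PBMCs exposed to IL-23 (5 ng/mL, 30 min, 37 °C) after 30 min peptide pretreatment. Cells were cryopreserved donor PBMCs activated 4 days with anti-CD3 plus IL-1β (100 ng/mL) and starved ~4 h; IC50 reported.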

Q: With `CC(=O)NCCCC[C@@H]1NC(=O)[C@H](Cc2c[nH]c3c(C)cccc23)NC(=O)[C@H]([C@@H](C)O)NC(=O)[C@H](CC(N)=O)NC(=O)[C@@H](NC(=O)[C@@H](CCCNC(=N)N)NC(=O)COCCOCCNC(=O)COCCOCCNC(=O)CC[C@H](NC(=O)CCCCCCCCCCCCCCCCC(=O)O)C(=O)O)C(C)(C)SSC(C)(C)[C@@H](C(=O)N[C@@H](Cc2ccc(OCCN)cc2)C(=O)N[C@@H](Cc2ccc3ccccc3c2)C(=O)NC2(C(=O)N[C@@H](CCC(=O)O)C(=O)N[C@@H](CC(N)=O)C(=O)N[C@@H](Cc3cccnc3)C(=O)N(C)CC(N)=O)CCOCC2)NC1=O` [compound 60, HOC18gEPEG2PEG2CO-r-Pen(3)-N-T-7MeW-K(Ac)-Pen(3)-AEF-2Nal-THP-E-N-3Pya-Sar-CONH2] ({C18 diacid-γGlu-AEEA-AEEA}-[dR][Pen]NT[Trp(7-Me)]K(Ac)[Pen][AEF][2Nal][Thp]EN[3Pal][Sar]-NH2; disulfide 2-7) as the molecule, how does the pIC50 (IL-23R) read?
A: > 7.30

Q: And the pIC50 [1]?
A: > 9.30

Q: Which results are given for `CC(=O)NCCCC[C@@H]1NC(=O)[C@H](Cc2c[nH]c3c(C)cccc23)NC(=O)[C@H]([C@@H](C)O)NC(=O)[C@H](CC(N)=O)NC(=O)[C@@H](NC(=O)[C@@H](CCCCNC(=O)COCCOCCNC(=O)COCCOCCNC(=O)CC[C@H](NC(=O)CCCCCCCCCCCCCCCCC(=O)O)C(=O)O)NC(C)=O)C(C)(C)SSC(C)(C)[C@@H](C(=O)N[C@@H](Cc2ccc(OCCN)cc2)C(=O)N[C@@H](Cc2ccc3ccccc3c2)C(=O)NC2(C(=O)N[C@@H](CCC(=O)O)C(=O)N[C@@H](CC(N)=O)C(=O)N[C@@H](Cc3cccnc3)C(=O)N(C)CC(N)=O)CCOCC2)NC1=O` [compound 58, MeCO-k(PEG2PEG2gEC18OH)-Pen(3)-N-T-7MeW-K(Ac)-Pen(3)-AEF-2Nal-THP-E-N-3Pya-Sar-CONH2] (Ac-[dK]([AEEA-AEEA-γGlu-C18 diacid])[Pen]NT[Trp(7-Me)]K(Ac)[Pen][AEF][2Nal][Thp]EN[3Pal][Sar]-NH2; disulfide 2-7)?
A: pIC50 (IL-23R): 6.30 to 7.30; pIC50 [1]: > 9.30

Q: What does the source list for `CC(=O)NCCCC[C@@H]1NC(=O)[C@H](Cc2c[nH]c3c(C)cccc23)NC(=O)[C@H]([C@@H](C)O)NC(=O)[C@H](CC(N)=O)NC(=O)[C@@H](NC(=O)[C@H](CCCCNC(=O)COCCOCCNC(=O)COCCOCCNC(=O)CC[C@H](NC(=O)CCCCCCCCCCCCCCCCC(=O)O)C(=O)O)CCCNC(=N)N)C(C)(C)SSC(C)(C)[C@@H](C(=O)N[C@@H](Cc2ccc(OCCN)cc2)C(=O)N[C@@H](Cc2ccc3ccccc3c2)C(=O)NC2(C(=O)N[C@@H](CCCCNC(=O)CCC(=O)N[C@H](CC(=O)O)C[N+](C)(C)C)C(=O)N[C@@H](CC(N)=O)C(=O)N[C@@H](Cc3cccnc3)C(=O)N(C)CC(N)=O)CCOCC2)NC1=O` [compound 32, HOC18gEPEG2PEG2CO-r-Pen(3)-N-T-7MeW-K(Ac)-Pen(3)-AEF(d)-2Nal-THP-E-N-3Pya-Sar-CONH2]?
A: pIC50 (IL-23R): 6.30 to 7.30; pIC50 [1]: > 9.30

Q: Which results are given for `CC(=O)N(C)CCCC[C@@H]1NC(=O)[C@H](Cc2c[nH]c3c(C)cccc23)NC(=O)[C@H]([C@@H](C)O)NC(=O)[C@H](CC(=O)N(C)C)NC(=O)[C@@H](NC(=O)[C@@H](CCCCNC(=O)CCOCCOCCOCCOCCOCCOCCOCCOCCOCCOCCOCCOCCNC(=O)CC[C@H](NC(=O)CCCCCCCCCCCCCCCCC(=O)O)C(=O)O)CC(=O)CCOCCOCC[N+](C)(C)C)C(C)(C)SSC(C)(C)[C@@H](C(=O)N[C@@H](Cc2ccc(OCCCCC[N+](C)(C)C)cc2)C(=O)N[C@@H](Cc2ccc3ccccc3c2)C(=O)NC2(C(=O)N[C@@H](CCCCN(C)C(C)=O)C(=O)N[C@@H](CC(N)=O)C(=O)N[C@@H](Cc3cccnc3)C(=O)N(C)CC(=O)N(C)C)CCOCC2)NC1=O` [compound 132, cPEG3aCO-k(PEG12gEC18OH)-Pen(3)-N(N(Me)2)-T-7MeW-K(NMeAc)-Pen(3)-TMAPF-2Nal-THP-K(NMeAc)-N-3Pya-Sar-CON(Me)2] ({C18 diacid-γGlu-PEG12}-[X15][Pen]D(NMe2)T[Trp(7-Me)][Lys(Me)](Ac)[Pen]Y(X1)[2Nal][Thp][Lys(Me)](Ac)N[3Pal][Sar]-NMe2; disulfide 2-7)?
A: pIC50 (IL-23R): > 7.30; pIC50 [1]: > 9.30

Q: With `CC(=O)NCCCC[C@@H]1NC(=O)[C@H](Cc2c[nH]c3c(C)cccc23)NC(=O)[C@H]([C@@H](C)O)NC(=O)[C@H](CC(N)=O)NC(=O)[C@@H](NC(C)=O)C(C)(C)SSC(C)(C)[C@@H](C(=O)N[C@@H](Cc2ccc(OCCN)cc2)C(=O)N[C@@H](Cc2ccc3ccccc3c2)C(=O)NC2(C(=O)N[C@@H](CCC(=O)O)C(=O)N[C@@H](CC(N)=O)C(=O)N[C@@H](Cc3cccnc3)C(=O)N(C)CC(=O)OCCOCCOCCNC(=O)COCCOCCNC(=O)CC[C@H](NC(=O)CCCCCCCCCCCCCCCCC(=O)O)C(=O)O)CCOCC2)NC1=O` [compound 147, MeCO-Pen(3)-N-T-7MeW-K(Ac)-Pen(3)-AEF-2Nal-THP-E-N-3Pya-Sar-CO(PEG2PEG2gEC18OH)] as the molecule, how does the pIC50 (IL-23R) read?
A: ≤ 6.30

Q: And the pIC50 [1]?
A: 8.30 to 9.30

Q: How did the pIC50 (IL-23R) turn out when `C=C(CN(C)C(=O)C(Cc1cccnc1)NC(=O)[C@H](CC(N)=O)NC(=O)[C@H](CCCCN(C)C(C)=O)NC(=O)C1(NC(=O)[C@H](Cc2ccc3ccccc3c2)NC(=O)[C@H](Cc2ccc(OCCNC(=O)C[N+](C)(C)CCCC(=O)CCOCCOCCOCCOCCOCCOCCNC(=O)CC[C@H](NC(=O)CCCCCCCCCCCCCCCCC(=O)O)C(=O)O)cc2)NC(=O)[C@H]2NC(=O)[C@H](CCCCN(C)C(C)=O)NC(=O)[C@H](Cc3c[nH]c4ccccc34)NC(=O)[C@H]([C@@H](C)O)NC(=O)[C@H](CC)NC(=O)[C@@H](N)C(C)(C)SSC2(C)C)CCCCC1)N(C)C` (stereo partly drawn) [compound 142, cPEG3aCO-Pen(3)-N(N(Me)2)-T-7MeW-K(NMeAc)-Pen(3)-AEF(SP6PEG6gEC18OH)-2Nal-THP-K(NMeAc)-N-3Pya-Sar-CON(Me)2] (H-[Pen][Abu]TW[Lys(Me)](Ac)[Pen][AEF](X30)[2Nal][Ac6c][Lys(Me)](Ac)N[ξ3Pal]-X31; disulfide 1-6) was run?
A: > 7.30

Q: What about the pIC50 [1] of the same molecule?
A: > 9.30

Q: Which results are given for `CC(=O)N(C)CCCC[C@@H]1NC(=O)[C@H](Cc2c[nH]c3c(C)cccc23)NC(=O)[C@H]([C@@H](C)O)NC(=O)[C@H](CC(=O)N(C)C)NC(=O)[C@@H](NC(=O)CCOCCOCC[N+](C)(C)C)C(C)(C)SSC(C)(C)[C@@H](C(=O)N[C@@H](Cc2ccc(OCCCCC[N+](C)(C)C)cc2)C(=O)N[C@@H](Cc2ccc3ccccc3c2)C(=O)NC2(C(=O)N[C@@H](CCCCNC(=O)COCCOCCNC(=O)COCCOCCNC(=O)CC[C@H](NC(=O)CCCCCCCCCCCCCCCCC(=O)O)C(=O)O)C(=O)N[C@@H](CC(N)=O)C(=O)N[C@@H](Cc3ccccc3)C(=O)N(C)CC(=O)N(C)C)CCOCC2)NC1=O` [compound 120, cPEG3aCO-Pen(3)-N(N(Me)2)-T-7MeW-K(NMeAc)-Pen(3)-TMAPF-2Nal-THP-K(PEG2PEG2gEC18OH)-N-3Pya-Sar-CON(Me)2] ({Me3N+(CH2)2O(CH2)2O(CH2)2CO}-[Pen]D(NMe2)T[Trp(7-Me)][Lys(Me)](Ac)[Pen]Y(X1)[2Nal][Thp]K([AEEA-AEEA-γGlu-C18 diacid])NF[Sar]-NMe2; disulfide 1-6)?
A: pIC50 (IL-23R): > 7.30; pIC50 [1]: > 9.30

Q: Which results are given for `CC(=O)NCCCC[C@@H]1NC(=O)[C@H](Cc2c[nH]c3c(C)cccc23)NC(=O)[C@H]([C@@H](C)O)NC(=O)[C@H](CCCCNC(=O)COCCOCCNC(=O)COCCOCCNC(=O)CC[C@H](NC(=O)CCCCCCCCCCCCCCCCC(=O)O)C(=O)O)NC(=O)[C@@H](NC(=O)[C@@H](CCCNC(=N)N)NC(C)=O)C(C)(C)SSC(C)(C)[C@@H](C(=O)N[C@@H](Cc2ccc(OCCN)cc2)C(=O)N[C@@H](Cc2ccc3ccccc3c2)C(=O)NC2(C(=O)N[C@@H](CCCCN(C)C(=O)CCOCCOCC[N+](C)(C)C)C(=O)N[C@@H](CC(N)=O)C(=O)N[C@@H](Cc3ccccn3)C(=O)N(C)CC(N)=O)CCOCC2)NC1=O` [compound 74, MeCO-r-Pen(3)-K(PEG2PEG2gEC18OH)-T-7MeW-K(Ac)-Pen(3)-AEF-2Nal-THP-K(NMecPEG3a)-N-3Pya-Sar-CONH2] (Ac-[dR][Pen]K([AEEA-AEEA-γGlu-C18 diacid])T[Trp(7-Me)]K(Ac)[Pen][AEF][2Nal][Thp][Lys(Me)](Me3N+(CH2)2O(CH2)2O(CH2)2CO)N[2Pal][Sar]-NH2; disulfide 2-7)?
A: pIC50 (IL-23R): > 7.30; pIC50 [1]: > 9.30
